The text below walks through data of US20240024291A1, “Uses of Dihydroorotate Dehydrogenase Inhibitors” (University of Maryland, Baltimore, priority 2022, published 2024).

Series [1] relates to 08-387 neurosphere line. In words: Western blot for cleaved PARP1. Format: cell-based, human. As to conditions: 10 nM. How it is done:
(§1) Western Blots were performed using 25 µg of protein per sample loaded onto NuPAGE® Novex® 4-12% Bis-Tris protein gels and transferred onto nitrocellulose membranes that were then blocked with 5% BSA in PBS and 0.1% Tween (PBST). Primary antibody incubation was performed in 5% BSA in PBST at 4° C. overnight, and HRP-labeled secondary antibody incubation (1:5000) was performed for one hour at room temperature in 5% BSA in PBST.
(§2) Antibodies used for western blotting were acquired from the following sources: Cleaved PARP (Asp214) (D64E10) XP® Rabbit mAb, Cell Signaling Technology Cat#5625, RRID:AB_10699459, 1:1000 for Western blots. Phospho-H2AX, Millipore Cat#RRID:AB_2755003, 1:1000 for Western blots, and 1:250 for immunofluorescence imaging. p-Tubulin, Millipore Cat #MAB5564, RRID:AB 11212768, 1:10,000 for Western blots. p44/42 MAPK (Erk1/2) (137F5) Rabbit mAb (Cell Signaling Technology Cat #4695, RRID:AB_390779) 1:1000 for Western blots; Phospho-p44/42 MAPK (Erk1/2) (Thr202/Tyr204) (Cell Signaling Technology Cat #9101, RRID:AB_331646) 1:1000 for Western blots; Akt Antibody (Cell Signaling Technology Cat #9272, RRID:AB_329827) 1:1000 for Western blots; Phospho-Akt (Ser473) Antibody (Cell Signaling Technology Cat #9271, RRID:AB 329825) 1:1000 for Western blots.
(§3) Poly(ADP-ribose) polymerase 1 (PARP1) is a nuclear protein that is activated by binding to DNA lesions and catalyzes the poly(ADP-ribosyl)ation of various nuclear proteins, including PARP1 itself, to recruit the DNA repair machinery to DNA lesions (53, 54. When excessive DNA damage occurs, PARP1 is cleaved to generate an 89 kDa fragment shown to serve as a cytoplasmic PAR carrier to induce AIF-mediated apoptosis (55). Given the profound induction of DNA damage in compound 1-treated GBM neurospheres, the prevalence of the 89 kDa PARP1 fragment in control and 10 nM compound 1-treated cells was measured. Strikingly, a 9.7- and 56-fold increase in the level of cleaved PARP1 was found in 913 and 08-387 neurosphere lines, respectively, when cultured in normoxia. Similarly, a 9.9- and 71-fold increase was documented in the level of cleaved PARP1 in 913 and 08-387 neurosphere lines cultured in hypoxia (FIG. 6).

In series [2] the test system is 913 neurosphere line. In words: Western blot for cleaved PARP1. Format: cell-based, human. The settings on record: 10 nM. The method, then: as §1, §2, §3
In general terms: Immunoblotting shows a protein as a band on a membrane.

Series [3] deals with 913 orthotopic xenografts. In words: Orthotopic glioblastoma xenograft, drug treatment. The format is in vivo. How it is done: (§4) Experiments with animals were performed in compliance with institutional guidelines and regulations. Four- to six-week-old male and female NCG mice (NOD-Prkdcem26Cd52112rgem26Cd22/NjuCrl, Charles River Laboratory, Wilmington, MA) were used in all experiments in approximately equal numbers of each sex in each experimental group. The 08-387 m-Cherry Luciferase or 913 Luciferase expressing cells (1×10 5) were stereotactically injected into the right striatum as previously described (30). Two weeks after the injection of the cells, tumor growth was monitored with bioluminescence imaging using an IVIS Spectrum imaging system equipped with the Living Image software package (Perkin Elmer). Male and female mice harboring orthotopic xenografts with Radiance (p/sec/cm2/sr) equal to or greater than 1x10 6 were randomly assigned to the control or compound 1 treatment groups. Mice were dosed daily by oral gavage with either vehicle (90/10 Kollisolv® PEG400/EtOH solution) or 3 mg/kg compound 1. Animal weight was monitored daily, and mice were sacrificed when they became symptomatic.
(§5) To generate equivalent treatment groups and facilitate the tracking of xenograft growth, these cells were transduced with a mCherry:Luciferase reporter. An equal number of male and female immunodeficient mice were injected, and overall survival was the primary endpoint. Mice were imaged weekly starting two weeks after the injection and then randomized to the two treatment groups when tumor Radiance surpassed 1x10 6 photons/sec/cm^2/sr (sr=units of solid angle or steradian). Compound 1 (3 mg/kg) or vehicle were delivered daily by oral gavage.

Series [4] concerns 08-387 orthotopic xenografts. In words: Orthotopic glioblastoma xenograft, drug treatment. Format: in vivo. The method, then:
as §4, §5

Series [5] deals with EGFRviii expressing 08-387 and 913 glioblastoma cells. In words: Gemcitabine sensitization assay (Alamar blue). The format is cell-based, human. The settings on record: varying dosages of gemcitabine and 100 nM of compound 1. How it is done: Ten thousand 08-387 or 913 glioblastoma cells per well were seeded in a 96 well plate. […] Post 72 hr of treatment, cell viability was calculated on Alamar blue absorbance reading.
(§6) To further evaluate the potential role of EGFR in compound 1 resistance, the 913 and 08-387 neurosphere lines were transduced with lentiviruses encoding EGFRvIll or GFP (as control) and these neurospheres were challenged with a relatively high dose of 1 mM compound 1.

Series [6] has as its system 08-387 neurosphere line transduced with EGFRvIll or GFP. In words: Resistance assay, EGFRvIll or GFP transduced cells. More on the design: dose or concentration left out as unconfirmed. The format is cell-based, human. The method, then:
(§7) Ten thousand 08-387 or 913 glioblastoma cells per well were seeded in a 96 well plate. Post 24 hr plating, 08-387 and 913 cells were treated with a varying dosage of compound 1 or with a varying dosage of gemcitabine alone or with 100 nM of compound 1. Post 72 hr of treatment, cell viability was calculated on Alamar blue absorbance reading.
(§8) The pLV[Expressior]-mCherry:T2A:Hygro-EF1A>Luc2 (Addgene Plasmid #174665) and pLV[Exp]-Bsd-EFS>EGFRvIll:T2A:TurboGFP (Addgene Plasmid #189841) lentivirus plasmids were designed by us and constructed by VectorBuilder. These plasmids are available at Addgene.
as §6

For series [7], the system named is 913 neurosphere line transduced with EGFRvIll or GFP. Briefly: Resistance assay, EGFRvIll or GFP transduced cells. Format: cell-based, human. More on the design: dose or concentration left out as unconfirmed. The method, then:
as §7, §8, §6

In the case of `CCn1c(CO)nn(-c2cc(O[C@@H](C)C(F)(F)F)c(C(=O)Nc3c(F)cccc3Cl)cc2F)c1=O` [Compound 1, N-(2-chloro-6-fluorophenyl)-4-[4-ethyl-4,5-dihydro-3-(hydroxymethyl)-5-oxo-1H-1,2,4-triazol-1-yl]-5-fluoro-2-[(1S)-2,2,2-trifluoro-1-methylethoxy]-benzamide], the “increase in the level of cleaved PARP1” value was 71 fold in series [1] (08-387, hypoxia); 56 fold in series [1] (08-387, normoxia); 9.9 fold in series [2] (913, hypoxia); 9.7 fold in series [2] (913, normoxia). Moreover, the “tumor radiance lower than in vehicle controls” value is on record as 6.5% in series [3] (913, week 1, 3 mg/kg daily oral); 41% in series [3] (913, week 2, 3 mg/kg daily oral); 52% in series [3] (913, week 3, 3 mg/kg daily oral). Further, the “body weight / tolerability” value in series [3] (913 xenograft mice, 3 mg/kg daily oral gavage) is “no significant weight loss”; in series [4] (08-387 xenograft mice, 3 mg/kg daily oral gavage), “no significant weight loss”. Besides, the “median survival from initiation of treatment” value is 41 days in series [3] (913 xenografts, 3 mg/kg daily oral (vehicle 32 days)) and 19 days in series [4] (08-387 xenografts, 3 mg/kg daily oral (vehicle 12 days)). Besides, the “increase in median survival” value in series [3] (913 xenografts, vs vehicle) is 28%; in series [4] (08-387 xenografts, vs vehicle) it was 58%. Besides, in series [4] (08-387, week 1, 3 mg/kg daily oral), the “tumor radiance compared to controls” value is listed as “roughly the same”. Moreover, the “tumor radiance lower compared to controls” value in series [4] (08-387, week 2, 3 mg/kg daily oral) turned out to be 47%; in series [4] (08-387, week 3, 3 mg/kg daily oral) it was 75%. In addition, the sensitization to gemcitabine entry in series [5] was “sensitizes”. Moreover, the surviving cell fraction in series [6] (08-387 EGFRvIll) was 36.7%; in series [6] (08-387 GFP (control)) it was 4%; in series [7] (913 EGFRvIll) it was 55.2%; in series [7] (913 GFP (control)), 27.9%.
